US9708336B2, “Metallo-beta-lactamase inhibitors” (priority 2014, dated 2017)
Where two headings read alike, the source gives them in different places.

Key:
NDM-1 = NDM-1 (Klebsiella pneumoniae, UniProt C7C422); experiment: biochemical; format: biochemical; settings: read-out: NDM-1 IC50
VIM-1 = VIM-1 (Pseudomonas aeruginosa (strain ATCC 15692 / DSM 22644 / CIP 104116 / JCM 14847 / LMG 12228 / 1C / PRS 101 / PAO1), UniProt A0A0F7KYQ8); experiment: Enzyme activity: determination of IC50, fluorescence assay with CCF2-FA substrate (VIM-1); format: biochemical
IMP-1 = IMP-1 (Serratia marcescens, UniProt P52699); experiment: biochemical; format: biochemical; settings: read-out: IMP-1 IC50
[1] = system: Serratia marcescens expressing IMP-1 (CL5741); experiment: Antibiotic potentiation activity: synergistic concentration (MITC95) with imipenem, OD600 growth; format: cell-based; settings: for Serratia marcescens MITC95: 95% growth inhibition; for Serratia marcescens expressing IMP-1 (CL5741) MITC95: concentration giving 95% inhibition of bacterial growth
How it was run: (§1)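 Bacteria were grown overnight on agar at 35 °C, diluted 1:100 from saline into 1.1× CAMHB, then given compound with or without imipenem (4 μg/ml in assay, optionally 1 μg/ml). Endpoint: absorbance at 22–24 h.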

[2] = system: Escherichia coli expressing NDM-1 (CLB30016); experiment: as above; format: cell-based; settings: for Escherichia coli MITC95: 95% growth inhibition; for Escherichia coli expressing NDM-1 (CLB 30016) MITC95: concentration giving 95% inhibition of bacterial growth
How it was run: as §1

[3] = system: Klebsiella pneumoniae expressing VIM-1 (IHMA599644); experiment: as above; format: cell-based; settings: for Klebsiella pneumoniae MITC95: 95% growth inhibition; for Klebsiella pneumoniae expressing VIM-1 (IHMA 599644) MITC95: concentration giving 95% inhibition of bacterial growth
How it was run: as §1

[4] = NDM-1 enzyme, CCF2-FA substrate
[5] = VIM-1 IC50, VIM-1 enzyme, CCF2-FA substrate
[6] = IMP-1 enzyme, CCF2-FA substrate
[7] = Serratia marcescens CL5741 (IMP-1)
[8] = Klebsiella pneumoniae IHMA599644 (VIM-1)
[9] = NDM-1 enzyme, CCF2-FA fluorescence assay
[10] = VIM-1 IC50, VIM-1 enzyme, CCF2-FA fluorescence assay
[11] = IMP-1 enzyme, CCF2-FA fluorescence assay
[12] = Serratia marcescens expressing IMP-1 (CL5741)
[13] = Escherichia coli expressing NDM-1 (CLB30016)
[14] = Klebsiella pneumoniae expressing VIM-1 (IHMA599644)
[15] = fluorescence assay with CCF2-FA substrate
[16] = fluorescence assay with CCF2-FA substrate, read-out: VIM-1 IC50
[17] = VIM-1 enzyme, CCF2-FA substrate, read-out: VIM-1 IC50
[18] = VIM-1 enzyme, CCF2-FA fluorescence assay, read-out: VIM-1 IC50

NDM-1, sequence (C7C422 whole entry, looked up, species assumed): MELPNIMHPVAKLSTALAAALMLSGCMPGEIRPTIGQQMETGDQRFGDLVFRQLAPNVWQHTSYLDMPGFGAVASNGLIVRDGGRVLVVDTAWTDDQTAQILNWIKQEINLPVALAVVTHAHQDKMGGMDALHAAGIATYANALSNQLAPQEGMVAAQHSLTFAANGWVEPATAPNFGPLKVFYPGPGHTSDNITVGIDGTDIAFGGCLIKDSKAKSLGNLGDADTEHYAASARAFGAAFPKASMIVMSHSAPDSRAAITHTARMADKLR
IMP-1, sequence (P52699 whole entry, looked up): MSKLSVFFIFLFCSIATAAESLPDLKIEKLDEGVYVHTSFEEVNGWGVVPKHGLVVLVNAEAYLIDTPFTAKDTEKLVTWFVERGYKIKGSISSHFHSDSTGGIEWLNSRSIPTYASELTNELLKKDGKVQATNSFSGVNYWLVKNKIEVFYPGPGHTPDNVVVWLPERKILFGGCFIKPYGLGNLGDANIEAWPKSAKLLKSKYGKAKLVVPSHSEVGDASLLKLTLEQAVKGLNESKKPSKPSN

SMILES	IC50 (NDM-1; [4]) [nM]	IC50 (IMP-1; [6]) [nM]	Serratia marcescens MITC95 [1, 7] [µM]	Escherichia coli MITC95 ([2]; (CLB30016, NDM-1)) [µM]	Klebsiella pneumoniae MITC95 [3, 8] [µM]	IC50 (NDM-1; [9]) [nM]	IC50 (IMP-1; [11]) [nM]	Serratia marcescens MITC95 [1, 12] [µM]	Escherichia coli MITC95 [2, 13] [µM]	Klebsiella pneumoniae MITC95 [3, 14] [µM]	IC50 (VIM-1; [17]) [nM]	also measured
Nc1nc2c(-c3ccc(CC4CNC4)c(S(N)(=O)=O)c3-c3nn[nH]n3)cccc2s1 [Example 545, 3-(2-aminobenzo[d]thiazol-4-yl)-6-(azetidin-3-ylmethyl)-2-(2H-tetrazol-5-yl)benzenesulfonamide]	2.72	21.8	3.125	0.7813	3.125							IC50 (VIM-1; [5]): 7.69 nM
NS(=O)(=O)c1cccc(-c2ccc(CNCCc3nc[nH]n3)cc2)c1-c1nnn[nH]1 [Example 338, 4′-(((2-(1H-1,2,4-triazol-3-yl)ethyl)amino)methyl)-2-(1H-tetrazol-5-yl)-[1,1′-biphenyl]-3-sulfonamide]						4.53	75.4	3.125	0.5859	25		IC50 (VIM-1; [10]): 152 nM
Nc1cncc(-c2cccc(S(N)(=O)=O)c2-c2nnn[nH]2)n1 [Example 137, 3-(6-aminopyrazin-2-yl)-2-(1H-tetrazol-5-yl)benzenesulfonamide]												IC50 (NDM-1; [15]): 30.7 nM; IC50 (VIM-1; [16]): 561 nM; IC50 (IMP-1; [15]): 2530 nM; Serratia marcescens expressing IMP-1 (CL5741) MITC95 [1]: 25 µM; Escherichia coli expressing NDM-1 (CLB 30016) MITC95 [2]: 1.172 µM; Klebsiella pneumoniae expressing VIM-1 (IHMA 599644) MITC95 [3]: 25 µM
NCCc1ccc(-c2ccc(C(F)(F)F)c(S(N)(=O)=O)c2-c2nnn[nH]2)cc1 [Example 707, 4′-(2-aminoethyl)-2-(1H-tetrazol-5-yl)-4-(trifluoromethyl)biphenyl-3-sulfonamide]	5.59	6.67	6.25	3.125	1.563						0.249	
CN(C)CCC1CCN(c2ccnc(S(N)(=O)=O)c2-c2nnn[nH]2)CC1 [Example 219, 4-{4-[2-(dimethylamino)ethyl]piperidin-1-yl}-3-(1H-tetrazol-5-yl)pyridine-2-sulfonamide]												IC50 (NDM-1; [15]): 1060 nM; IC50 (VIM-1; [16]): 458 nM; IC50 (IMP-1; [15]): 10400 nM; Serratia marcescens expressing IMP-1 (CL5741) MITC95 [1]: 37.5 µM; Escherichia coli expressing NDM-1 (CLB 30016) MITC95 [2]: 4.688 µM; Klebsiella pneumoniae expressing VIM-1 (IHMA 599644) MITC95 [3]: 12.5 µM
NS(=O)(=O)c1cccc(-c2ccc3cnccc3c2)c1-c1nnn[nH]1 [Example 408, 3-(6-isoquinolyl)-2-(1H-tetrazol-5-yl)benzenesulfonamide]						1.38	84.3	4.688	0.3906	75		IC50 (VIM-1; [18]): 14.9 nM
Cc1nnc2ccc(-c3cccc(S(N)(=O)=O)c3-c3nnn[nH]3)cn12 [Example 113, 3-(3-methyl-[1,2,4]triazolo[4,3-a]pyridin-6-yl)-2-(1H-tetrazol-5-yl)benzenesulfonamide]												IC50 (NDM-1; [15]): 15.4 nM; IC50 (VIM-1; [16]): 313 nM; IC50 (IMP-1; [15]): 14800 nM; Serratia marcescens expressing IMP-1 (CL5741) MITC95 [1]: 200 µM; Escherichia coli expressing NDM-1 (CLB 30016) MITC95 [2]: 3.125 µM; Klebsiella pneumoniae expressing VIM-1 (IHMA 599644) MITC95 [3]: 50 µM
NCC[C@H]1CC[C@H](c2ccc(C(F)(F)F)c(S(N)(=O)=O)c2-c2nnn[nH]2)CC1 [Example 499, 3-(trans 4-(2-aminoethyl)cyclohexyl)-2-(1H-tetrazol-5-yl)-6-(trifluoromethyl)benzenesulfonamide]	1.93	7.04	0.1953	0.7813	1.172							IC50 (VIM-1; [5]): 0.328 nM
NS(=O)(=O)c1c(C(F)(F)F)ccc(N2CC3C(CO)C3C2)c1-c1nnn[nH]1 (stereo not drawn) [Example 658, 3-[6-(hydroxymethyl)-3-azabicyclo[3.1.0]hex-3-yl]-2-(1H-tetrazol-5-yl)-6-(trifluoromethyl)benzenesulfonamide]	5.12	7	0.7813	2.344	12.5						5.26	
Nc1ccc(-c2ccc(C(F)(F)F)c(S(N)(=O)=O)c2-c2nn[nH]n2)cn1 [Example 265, 3-(6-aminopyridin-3-yl)-2-(2H-tetrazol-5-yl)-6-(trifluoromethyl)benzenesulfonamide]						2.65	6.93	0.4271	0.125	4.775		IC50 (VIM-1; [10]): 1.26 nM
Nc1cccc2c(-c3ccc(C(F)(F)F)c(S(N)(=O)=O)c3-c3nn[nH]n3)cc(C(=O)O)nc12 [Example 526, 8-Amino-4-(3-sulfamoyl-2-(2H-tetrazol-5-yl)-4-(trifluoromethyl)phenyl)quinoline-2-carboxylic acid]	1.85	4.58	100	25	50						1.59	
N#Cc1nc2c(-c3ccc(C(F)(F)F)c(S(N)(=O)=O)c3-c3nnn[nH]3)cccc2s1 [Example 483, 3-(2-Cyanobenzo[d]thiazol-4-yl)-2-(1H-tetrazol-5-yl)-6-(trifluoromethyl)benzenesulfonamide]						0.755	2.12	25	6.25	12.5		IC50 (VIM-1; [18]): 0.216 nM
CN1CCC2(CCN(c3ccc(-c4cccc(S(N)(=O)=O)c4-c4nnn[nH]4)cn3)C2)C1 (stereo not drawn) [Example 632, 3-[6-(7-methyl-2,7-diazaspiro[4.4]nonan-2-yl)-3-pyridyl]-2-(1H-tetrazol-5-yl)benzenesulfonamide]	26.8	254	6.25	1.172	100						482	
NS(=O)(=O)c1cccc(-c2ccc(CNCCc3c[nH]cn3)cc2)c1-c1nnn[nH]1 [Example 384, 4′-({[2-(1H-imidazol-4-yl)ethyl]amino}methyl)-2-(1H-tetrazol-5-yl)biphenyl-3-sulfonamide]						13.6	293	4.688	1.953	50		IC50 (VIM-1; [18]): 225 nM
NS(=O)(=O)c1c(C(F)(F)F)ccc(-c2ccc3c(c2)CNC3)c1-c1nn[nH]n1 [Example 441, 3-(isoindolin-5-yl)-2-(2H-tetrazol-5-yl)-6-(trifluoromethyl)benzenesulfonamide]						11.3	22.1	1.563	1.172	0.7813		IC50 (VIM-1; [18]): 0.838 nM
NS(=O)(=O)c1cccc(CCc2ccccn2)c1-c1nnn[nH]1 [Example 144, 3-(2-pyridin-2-ylethyl)-2-(1H-tetrazol-5-yl)benzenesulfonamide]												IC50 (NDM-1; [15]): 121 nM; IC50 (VIM-1; [16]): 1540 nM; IC50 (IMP-1; [15]): 4500 nM; Serratia marcescens expressing IMP-1 (CL5741) MITC95 [1]: 200 µM; Escherichia coli expressing NDM-1 (CLB 30016) MITC95 [2]: 3.125 µM; Klebsiella pneumoniae expressing VIM-1 (IHMA 599644) MITC95 [3]: >200 µM
Cc1n[nH]c2c1CN(c1ccc(C(F)(F)F)c(S(N)(=O)=O)c1-c1nnn[nH]1)CC2 [Example 655]	0.985	7.8	0.5859	2.344	9.375						0.225	
CS(=O)(=O)Nc1ccc(-c2ccc(Br)c(S(N)(=O)=O)c2-c2nn[nH]n2)cc1 [Example 270, 4-bromo-4′-(methylsulfonamido)-2-(2H-tetrazol-5-yl)-[1,1′-biphenyl]-3-sulfonamide]						2.56	4.86	0.3906	1.563	6.25		IC50 (VIM-1; [18]): 1.68 nM
CC(C)(C)Cc1cccc(S(N)(=O)=O)c1-c1nnn[nH]1 [Example 159, 3-neopentyl-2-(1H-tetrazol-5-yl)benzenesulfonamide]												IC50 (NDM-1; [15]): 34 nM; IC50 (VIM-1; [16]): 3390 nM; IC50 (IMP-1; [15]): 526 nM; Serratia marcescens expressing IMP-1 (CL5741) MITC95 [1]: 18.75 µM; Escherichia coli expressing NDM-1 (CLB 30016) MITC95 [2]: 3.125 µM; Klebsiella pneumoniae expressing VIM-1 (IHMA 599644) MITC95 [3]: >200 µM
NC[C@H]1CC[C@@H](c2ccc(CCC3CCNCC3)c(S(N)(=O)=O)c2-c2nnn[nH]2)CC1 [Example 592, 3-((1s,4s)-4-(aminomethyl)cyclohexyl)-6-(2-(piperidin-4-yl)ethyl)-2-(1H-tetrazol-5-yl)benzenesulfonamide]	8.6	84.1	3.125	1.563	12.5						34.8	
